In patent US20190375708A1 (VenatoRx Pharmaceuticals, Inc., priority 2018, published 2019):
Where two headings read alike, the source gives them in different places.

How the values were obtained:
[1] = system: HBV replication in HepAD38 cells; assay: Anti-HBV replication assay in HepAD38 cells (QPCR of extracellular HBV DNA); assay type: cell-based, HBV (genotype D, serotype ayw); conditions: Hepatitis B virus
Method: The anti-HBV activity of the Capsid Assembly Modulators (CAMs) was evaluated in a cell based assay utilizing the human hepatoma cell line HepAD38 (Ladner, S K., et al., 1998). HepAD38 cells were derived from the parental line, HepG2, that were stably transfected with a construct containing an HBV genome (genotype D, serotype ayw) under the control of a tetracycline repressible CMV promoter. Upon removal of tetracycline, viral pre-genomic RNA (pgRNA) and mRNAs are expressed and infectious viral particles are assembled and secreted into the culture medium providing a reliable, robust system to measure multiple steps of the HBV life cycle. Disruption of capsid formation results in reduced levels of DNA-containing virus particles that are released into the culture supernatant. To quantify the effect of CAMs on HBV replication, we developed a sensitive QPCR-based assay that measures extracellular HBV DNA levels upon treatment of HepAD38 cells with various concentrations of test compounds.
HepAD38 cells were maintained in DMEM/F12 medium containing 10% FBS, 400 μg/mL G418 and 0.3 μg/mL tetracycline (tet+ media) to maintain repression of HBV replication. To evaluate each compound, HepAD38 cells were seeded into 24-well collagen coated culture plates (Corning BioCoat) at a density of 200,000 cells per well in 1 mL of medium without tetracycline (tet-media) and allowed to adhere overnight at 37° C., 5% CO2 in a humidified incubator. The following day, media was refreshed and a dose range of each compound was prepared by performing 1 log10 serial dilutions in 100% DMSO at 200× the desired assay concentration. Dilutions were then added to the cells resulting in a final dose range of 1 μM to 10 μM and the plates were returned to the incubator. Following 7 days of incubation, culture supernatants were harvested and HBV DNA levels were evaluated by QPCR and compared to the vehicle treated control wells (i.e. DMSO alone).
To quantify HBV DNA levels, cell culture supernatants were diluted 1:10 in sterile, nuclease-free water (Gibco). The diluted supernatants were subsequently added to a PCR master mix containing 1× Roche Light Cycler Master Mix, 0.5 μM forward primer, 0.5 μM reverse primer (Fwd: 5′-[…] (SEQ ID NO 1); Rev: 5′-[…] (SEQ ID NO 2)), 0.2 μM Roche Universal Probe Library Probe 25. The volume was brought to 20 μL with nuclease-free water and amplification of the HBV target sequence was performed using a Roche LightCycler 480 QPCR instrument. PCR extended out to 45 cycles with each cycle consisting of a denaturation step at 95° C. for 10 sec., followed by an annealing step at 60° C. for 10 sec. and a brief extension step at 72° C. for 1 sec.
Extracellular HBV DNA levels, expressed in copies/mL, were determined by comparison to a standard curve (10^2-10^9 copies/mL) using the Roche LightCycler analysis software. These values were subsequently converted to percent inhibition of HBV replication by dividing the HBV DNA levels in the experimental samples with those obtained from the vehicle control (˜1-2×10^5 copies/mL). Potency, expressed as an EC50 (the effective concentration required to inhibit 50% of HBV replication), was calculated from the dose-response curve using a 4-parameter non-linear regression analysis (GraphPad Prism). The nucleoside analog inhibitor entecavir was used as a positive control to validate each assay run. The EC50 value of entecavir in the HepAD38 assay was 0.5 nM, as previously reported in the literature.

[2] = In vitro cytotoxicity assay (MTT cell viability) in HepG2 cells; assay type: cell-based, human; conditions: human
Method: To evaluate antiviral selectivity, the cytotoxic activity of each compound was determined using a standard cell viability assay performed on the parental HepG2 cell line. Cell viability was determined by measuring the conversion of 3-(4,5-dimethylthiazol-2-yl)-2,5-diphenyltetrazolium bromide (MTT) to the insoluble formazan salt crystal that occurs in live cells. Briefly, HepG2 cells were seeded in 96-well plates at a density of 20,000 cells per well in EMEM+10% FBS (complete growth medium) and allowed to adhere overnight in a 37° C., 5% CO2 humidified incubator. The next day, test agents were prepared by performing 8 half-log10 serial dilutions in 100% DMSO at 200× the final desired concentration in the assay. Compounds were tested over a range of concentrations from 30 μM to 1.0 nM in the assay. HepG2 cells were incubated in the presence of various concentrations of CAMs for 7 days in a 37° C., 5% CO2 humidified incubator. At the completion of the 7-day incubation period, MTT reagent was added to each well and the mixture was incubated for an additional 3-4 hours. At the completion of the incubation period, all wells were aspirated to remove the culture medium. The formazan crystals were solubilized from the cell monolayers with 100% DMSO. Plates were briefly mixed on an orbital shaker and absorbance was measured at 492 nm using a Perkin-Elmer EnVision multi-label plate reader. All absorbance values were converted to a percentage of the signal obtained from the vehicle treated controls. Absorbance values at 492 nm are directly proportional to the number of viable cells present in the sample. A CC50 value (cytotoxic concentration that results in loss of 50% cell viability) was calculated from the dose-response curve by 4-parameter, non-linear regression analysis using the GraphPad Prism software. The positive control compound, staurosporine, reduced the viability of HepG2 cells in a dose-dependent manner (CC50=100 nM).

[3] = 168 h, 7 days incubation, extracellular HBV DNA by QPCR, read-out: Anti-HBV EC50

Compound: CC(C)(O)CNC(=O)C(=O)c1c(Cl)c(C(=O)Nc2ccnc(F)c2)c2n1CCCC2 [Example 530, 2-chloro-N-(22-fluoropyridin-4-yl)-3-(22-((2-hydroxy-2-methylpropyl)amino)-2-oxoacetyl)-5,6,7,8-tetrahydroindolizine-1-carboxamide]
- EC50 [1, 3]: > 1000 nM
- CC50 at 7 days [2]: > 30000 nM

Compound: Cc1cc(Cl)cc(NC(=O)c2c(C)c(C(=O)C(=O)N[C@@H]3CCC[C@@H](O)C3)n(C)c2C)c1 [Example 688, N-(3-chloro-5-methylphenyl)-5-(2-(((1R,3R)-3-hydroxycyclohexyl)amino)-2-oxoacetyl)-1,2,4-trimethyl-1H-pyrrole-3-carboxamide]
- EC50 [1, 3]: < 50 nM
- CC50 at 7 days [2]: > 30000 nM

Compound: Cc1cc(NC(=O)c2c(C)c(C(=O)C(=O)NC3CCN(c4cccs4)CC3)n(C)c2C)ccc1F [Example 655]
- EC50 [1, 3]: 50 to 499 nM
- CC50 at 7 days [2]: > 30000 nM

Compound: Cc1cc(NC(=O)c2c(C)c(C(=O)C(=O)NC(C)(C)C(N)=O)n(CCO)c2C)ccc1F [Example 72, 5-(2-((1-amino-2-methyl-1-oxopropan-2-yl)amino)-2-oxoacetyl)-N-(4-fluoro-3-methylphenyl)-1-(2-hydroxyethyl)-2,4-dimethyl-1H-pyrrole-3-carboxamide]
- EC50 [1, 3]: > 1000 nM
- CC50 at 7 days [2]: > 30000 nM

Compound: COC(=O)[C@H](NC(=O)C(=O)c1c(C)c(C(=O)Nc2ccc(F)c(C)c2)c(C)n1C)C1CCCCC1 [Example 56, methyl (R)-2-cyclohexyl-2-(2-(4-((4-fluoro-3-methylphenyl)carbamoyl)-1,3,5-trimethyl-1H-pyrrol-2-yl)-2-oxoacetamido)acetate]
- EC50 [1, 3]: < 50 nM
- CC50 at 7 days [2]: 500 to 4990 nM

Compound: Cc1cc(NC(=O)c2c(C)c(C(=O)C(=O)NCC(C)(C)O)n3c2CCCC3)cnc1F [Example 477, N-(6-fluoro-5-methylpyridin-3-yl)-3-(2-((2-hydroxy-2-methylpropyl)amino)-2-oxoacetyl)-2-methyl-5,6,7,8-tetrahydroindolizine-1-carboxamide]
- EC50 [1, 3]: > 1000 nM
- CC50 at 7 days [2]: > 30000 nM

Compound: CC(C)(CO)CNC(=O)C(=O)c1c(Cl)c(C(=O)Nc2ccc(F)c(F)c2)c2n1CCC2 [Example 559, 6-chloro-N-(3,4-difluorophenyl)-5-(2-((3-hydroxy-2,2-dimethylpropyl)amino)-2-oxoacetyl)-2,3-dihydro-1H-pyrrolizine-7-carboxamide]
- EC50 [1, 3]: 50 to 499 nM
- CC50 at 7 days [2]: > 30000 nM

Compound: Cc1cc(NC(=O)c2c(C)c(C(=O)C(=O)N[C@]3(C)CC[C@H](O)CC3)n3c2CCCC3)ccc1F [Example 737, N-(4-fluoro-3-methylphenyl)-3-(2-(((1s,4s)-4-hydroxy-1-methylcyclohexyl)amino)-2-oxoacetyl)-2-methyl-5,6,7,8-tetrahydroindolizine-1-carboxamide]
- EC50 [1, 3]: < 50 nM
- CC50 at 7 days [2]: > 30000 nM

Compound: Cc1cc(NC(=O)c2c(C)c(C(=O)C(=O)NCCN3C(=O)CSC3=O)n(C)c2C)ccc1F [Example 649, 5-(2-((2-(2,4-dioxothiazolidin-3-yl)ethyl)amino)-2-oxoacetyl)-N-(4-fluoro-3-methylphenyl)-1,2,4-trimethyl-1H-pyrrole-3-carboxamide]
- EC50 [1, 3]: < 50 nM
- CC50 at 7 days [2]: > 30000 nM

Compound: O=C(NC1(CO)CC1)C(=O)c1c(Cl)c(C(=O)Nc2ccc(F)c(Cl)c2)c2n1CCC2 [Example 566, 6-chloro-N-(3-chloro-4-fluorophenyl)-5-(2-((1-(hydroxymethyl)cyclopropyl)amino)-2-oxoacetyl)-2,3-dihydro-1H-pyrrolizine-7-carboxamide]
- EC50 [1, 3]: < 50 nM
- CC50 at 7 days [2]: 5000 to 30000 nM

Compound: Cc1cc(NC(=O)c2c(C)c(C(=O)C(=O)NCC(C)(C)O)n(C)c2C)ccc1F [Example 66, N-(4-fluoro-3-methylphenyl)-5-(2-((2-hydroxy-2-methylpropyl)amino)-2-oxoacetyl)-1,2,4-trimethyl-1H-pyrrole-3-carboxamide]
- EC50 [1, 3]: < 50 nM
- CC50 at 7 days [2]: > 30000 nM

Compound: Cc1cc(NC(=O)c2c(C)c(C(=O)C(=O)NC(C)(C)C)n3c2CCCC3)ccc1F [Example 434, 3-(2-(tert-butylamino)-2-oxoacetyl)-N-(4-fluoro-3-methylphenyl)-2-methyl-5,6,7,8-tetrahydroindolizine-1-carboxamide]
- EC50 [1, 3]: < 50 nM
- CC50 at 7 days [2]: > 30000 nM

Compound: Cc1cc(NC(=O)c2c(C)c(C(=O)C(=O)NC(C)(C)C(C)(C)O)n(C)c2C)ccc1F [Example 617, N-(4-fluoro-3-methylphenyl)-5-(2-((3-hydroxy-2,3-dimethylbutan-2-yl)amino)-2-oxoacetyl)-1,2,4-trimethyl-1H-pyrrole-3-carboxamide]
- EC50 [1, 3]: < 50 nM
- CC50 at 7 days [2]: > 30000 nM

Compound: Cc1c(C(=O)Nc2ccc(F)c(Cl)c2)c(C)n(C)c1C(=O)C(=O)NC1CCC(F)(F)CC1 [Example 314, N-(3-chloro-4-fluorophenyl)-5-(2-((4,4-difluorocyclohexyl)amino)-2-oxoacetyl)-1,2,4-trimethyl-1H-pyrrole-3-carboxamide]
- EC50 [1, 3]: < 50 nM
- CC50 at 7 days [2]: 5000 to 30000 nM

Compound: Cc1c(C(=O)Nc2ccc(F)c(F)c2)c(C)n(C)c1C(=O)C(=O)Nc1ccc(F)nc1 [Example 297, N-(3,4-difluorophenyl)-5-(2-((6-fluoropyridin-3-yl)amino)-2-oxoacetyl)-1,2,4-trimethyl-1H-pyrrole-3-carboxamide]
- EC50 [1, 3]: < 50 nM
- CC50 at 7 days [2]: 5000 to 30000 nM

Compound: O=C(N[C@H]1COC[C@@H]1O)C(=O)c1c(Cl)c(C(=O)Nc2ccc(F)c(F)c2)c2n1CCC2 [Example 570, 6-chloro-N-(3,4-difluorophenyl)-5-(22-(((3S,4R)-4-hydroxytetrahydrofuran-3-yl)amino)-2-oxoacetyl)-2,3-dihydro-1H-pyrrolizine-7-carboxamide]
- EC50 [1, 3]: < 50 nM
- CC50 at 7 days [2]: > 30000 nM

Compound: Cc1c(C(=O)Nc2ccc(F)c(Cl)c2)c(C)n(C)c1C(=O)C(=O)Nc1ccc(F)cn1 [Example 310, N-(3-chloro-4-fluorophenyl)-5-(2-((5-fluoropyridin-2-yl)amino)-2-oxoacetyl)-1,2,4-trimethyl-1H-pyrrole-3-carboxamide]
- EC50 [1, 3]: < 50 nM

Compound: C=C1[C@H](CO)[C@@H](O)C[C@@H]1n1cnc2c(=O)[nH]c(N)nc21 [entecavir, reference compound]
- EC50 ([1]; positive control, read-out: EC50 in the HepAD38 assay): 0.5 nM

Compound: CN[C@@H]1C[C@H]2O[C@@](C)([C@@H]1OC)n1c3ccccc3c3c4c(c5c6ccccc6n2c5c31)C(=O)NC4 [staurosporine, reference compound]
- CC50 at 7 days ([2]; positive control, HepG2 cells, 7 days, MTT, read-out: CC50 (loss of 50% cell viability)): 100 nM
